From the NIST ThermoML archive (doi:10.1016/j.jct.2019.05.002)
Numbers after ± are expanded uncertainties.

Assay: xn = mol fraction of the nth substance listed
Conditions: 100 kPa, Liquid; for speed of sound: Frequency=3 MHz, Single path-length method; for mass density: Vibrating tube method

CC(O)CCO (stereo not given) [1,3-butanediol] + CCCC(=O)OCC
Conditions | mass density, 313.15 K [kg/m3] | mass density, 318.15 K [kg/m3] | mass density, 323.15 K [kg/m3] | speed of sound, 313.15 K [m/s] | speed of sound, 318.15 K [m/s] | speed of sound, 323.15 K [m/s]
x2 = 0 | 991.49 ± 2 | 988.02 ± 2 | 984.56 ± 2 | 1486.2 ± 1.4 | 1472.3 ± 1.4 | 1458.4 ± 1.4
x2 = 0.1034 | 977.69 ± 2 | 974.01 ± 2 | 970.34 ± 2 | 1447.2 ± 1.4 | 1432.6 ± 1.4 | 1417.9 ± 1.4
x2 = 0.203 | 964.38 ± 2 | 960.49 ± 2 | 956.63 ± 2 | 1409.6 ± 1.3 | 1394.3 ± 1.3 | 1378.9 ± 1.3
x2 = 0.305 | 950.77 ± 2 | 946.68 ± 2 | 942.62 ± 2 | 1371.2 ± 1.2 | 1355.1 ± 1.2 | 1339 ± 1.2
x2 = 0.3835 | 940.28 ± 2 | 936.03 ± 2 | 931.81 ± 2 | 1341.5 ± 1.2 | 1324.9 ± 1.2 | 1308.3 ± 1.2
x2 = 0.4936 | 925.59 ± 2 | 921.1 ± 2 | 916.67 ± 2 | 1300 ± 1.2 | 1282.6 ± 1.2 | 1265.2 ± 1.2
x2 = 0.5811 | 913.91 ± 2 | 909.25 ± 2 | 904.65 ± 2 | 1267 ± 1.1 | 1249 ± 1.1 | 1231 ± 1.1
x2 = 0.6878 | 899.66 ± 2 | 894.78 ± 2 | 889.97 ± 2 | 1226.8 ± 1.1 | 1208 ± 1.1 | 1189.2 ± 1.1
x2 = 0.7997 | 884.72 ± 2 | 879.61 ± 2 | 874.58 ± 2 | 1184.6 ± 1 | 1165 ± 1 | 1145.4 ± 1
x2 = 0.8818 | 873.76 ± 2 | 868.48 ± 2 | 863.28 ± 2 | 1153.6 ± 1 | 1133.4 ± 1 | 1113.3 ± 1
